Two compounds from ChEMBL document CHEMBL5303765, “Data for DCP probe BAY-7081” (2023) can be followed below.

Test [1] has as its target Dual 3',5'-cyclic-AMP and -GMP phosphodiesterase 11A (Homo sapiens, UniProt Q9HCR9). The experiment in a line: Panlabs assay PDE11A4. Further details: compound concentration 10 uM; call rule not given here. Conditions: at 10 µM.
The target of test [2] is cGMP-inhibited 3',5'-cyclic phosphodiesterase 3B (Homo sapiens, UniProt Q13370). The experiment in a line: Panlabs assay PDE3B. Further details: compound concentration 10 uM. Conditions: at 10 µM.
Test [3] concerns the target 3',5'-cyclic-AMP phosphodiesterase 4A (Homo sapiens) (UniProt P27815). The experiment in a line: Panlabs assay PDE4A1A. Conditions: at 10 µM. On the set-up: compound concentration 10 uM.
Test [4] has as its target T1, cGMP-dependent 3',5'-cyclic phosphodiesterase (Homo sapiens, UniProt O00408). The experiment in a line: Panlabs assay PDE2A. The note with it: at 10 µM. On the set-up: compound concentration 10 uM.
Test [5] has as its target T2, 3',5'-cyclic-AMP phosphodiesterase 4B (Homo sapiens, UniProt Q07343). The experiment in a line: Panlabs assay PDE4B1. Conditions: at 10 µM. On the set-up: compound concentration 10 uM.
For test [6], the target named is D(2) dopamine receptor (Homo sapiens) (UniProt P14416). The experiment in a line: Dopamine D2S Eurofins Panlabs panel. Conditions: Compound concentration 10.0 uM.
Test [7] has as its target Prostaglandin E2 receptor EP1 subtype (Homo sapiens) (UniProt P34995). The experiment in a line: Prostanoid EP1 Eurofins Panlabs panel. The note with it: Compound concentration 10.0 uM.
In test [8] the target is Prostaglandin G/H synthase 2 (Homo sapiens) (UniProt P35354). The experiment in a line: Cyclooxygenase COX-2 Eurofins Panlabs panel. The note with it: Compound concentration 10.0 uM.
Test [9] addresses Mu-type opioid receptor (Homo sapiens, UniProt P35372). The experiment in a line: Opiate ??(OP3, MOP) Eurofins Panlabs panel. The note with it: Compound concentration 10.0 uM.
Test [10] concerns the target Purinergic P2Y (Rattus norvegicus) (UniProt O35811+Q9EPX4+P49651+Q63371+P41232+O35881+Q6GUG4). The experiment in a line: Purinergic P2Y Eurofins Panlabs panel. Conditions: Compound concentration 10.0 uM. It counts as protein assay.
Test [11] has as its target Neuropeptide Y receptor type 1 (Homo sapiens) (UniProt P25929). The experiment in a line: Neuropeptide Y Y1 Eurofins Panlabs panel. Conditions: Compound concentration 10.0 uM.
For test [12], the target named is High affinity cAMP-specific and IBMX-insensitive 3',5'-cyclic phosphodiesterase 8A (Homo sapiens, UniProt O60658). The experiment in a line: 3H-cAMP and 3H-cGMP Scintillation Proximity Assay (PDE8A). A general note: Scintillation proximity formats need no separation of bound from free tracer.
The target in test [13] is Phosphodiesterase PDE1 (Bos taurus, UniProt Q01061+P14100+A0A3Q1MCV4). The experiment in a line: 3H-cAMP and 3H-cGMP Scintillation Proximity Assay (PDE1). It counts as tissue-based, brain.
In test [14] the target is T3, 5-hydroxytryptamine receptor 3A (Homo sapiens) (UniProt P46098).
T3 sequence (whole entry): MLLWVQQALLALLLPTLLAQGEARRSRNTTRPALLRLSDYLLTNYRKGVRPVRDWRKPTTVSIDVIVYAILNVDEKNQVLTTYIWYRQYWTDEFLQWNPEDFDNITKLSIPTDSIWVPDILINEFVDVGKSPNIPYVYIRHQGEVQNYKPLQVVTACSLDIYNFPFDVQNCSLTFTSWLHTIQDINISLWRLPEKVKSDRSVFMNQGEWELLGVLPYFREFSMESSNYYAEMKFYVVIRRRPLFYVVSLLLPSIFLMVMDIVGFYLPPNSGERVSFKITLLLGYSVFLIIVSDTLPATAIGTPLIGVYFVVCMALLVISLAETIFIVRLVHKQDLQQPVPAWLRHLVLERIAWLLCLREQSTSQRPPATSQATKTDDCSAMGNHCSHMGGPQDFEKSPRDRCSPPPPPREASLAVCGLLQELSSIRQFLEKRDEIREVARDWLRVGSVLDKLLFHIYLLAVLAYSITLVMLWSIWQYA
The experiment in a line: Serotonin (5-Hydroxytryptamine) 5-HT3 Eurofins Panlabs panel. Conditions: Compound concentration 10.0 uM.

The target of test [15] is cAMP and cAMP-inhibited cGMP 3',5'-cyclic phosphodiesterase 10A (Homo sapiens, UniProt Q9Y233). The experiment in a line: 3H-cAMP and 3H-cGMP Scintillation Proximity Assay (PDE10A).
The target in test [16] is Adenosine receptor A3 (Homo sapiens) (UniProt P0DMS8). The experiment in a line: Adenosine A3 Eurofins Panlabs panel. Conditions: Compound concentration 10.0 uM.
In test [17] the target is T4, Alpha-2C adrenergic receptor (Homo sapiens) (UniProt P18825).
T4 sequence (whole entry): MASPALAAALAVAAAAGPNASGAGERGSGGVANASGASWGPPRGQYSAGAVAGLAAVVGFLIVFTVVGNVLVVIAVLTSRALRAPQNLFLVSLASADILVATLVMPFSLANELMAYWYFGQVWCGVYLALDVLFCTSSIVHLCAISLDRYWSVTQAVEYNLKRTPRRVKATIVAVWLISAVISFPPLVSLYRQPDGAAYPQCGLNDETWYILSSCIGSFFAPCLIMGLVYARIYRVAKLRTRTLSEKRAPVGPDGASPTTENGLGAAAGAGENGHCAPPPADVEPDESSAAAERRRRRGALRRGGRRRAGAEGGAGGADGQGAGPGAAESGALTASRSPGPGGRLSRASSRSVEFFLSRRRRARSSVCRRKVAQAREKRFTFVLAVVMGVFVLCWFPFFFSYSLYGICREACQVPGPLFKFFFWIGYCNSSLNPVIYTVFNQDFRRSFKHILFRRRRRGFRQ
The experiment in a line: Adrenergic alpha2C Eurofins Panlabs panel. Conditions: Compound concentration 10.0 uM.

The target of test [18] is T2, 3',5'-cyclic-AMP phosphodiesterase 4B. The experiment in a line: 3H-cAMP and 3H-cGMP Scintillation Proximity Assay (PDE4B).
Test [19] concerns the target Kappa-type opioid receptor (Homo sapiens) (UniProt P41145). The experiment in a line: Opiate kappa(OP2, KOP) Eurofins Panlabs panel. Conditions: Compound concentration 10.0 uM.
Test [20] concerns the target T1, cGMP-dependent 3',5'-cyclic phosphodiesterase. The experiment in a line: 3H-cAMP and 3H-cGMP Scintillation Proximity Assay (PDE2A).
For test [21], the target named is Phosphodiesterase 4 (Homo sapiens) (UniProt P27815+Q08499+Q07343+Q08493). The experiment in a line: Phosphodiesterase PDE4 Eurofins Panlabs panel. The note with it: Compound concentration 10.0 uM. It counts as protein assay.
For test [22], the target named is Adenosine Transporter (Cavia porcellus) (UniProt H0V4R7+H0UUG1+H0V3Z5). The experiment in a line: Transporter, Adenosine Eurofins Panlabs panel. It counts as protein assay. Conditions: Compound concentration 10.0 uM.
For test [23], the target named is Leukotriene C4 synthase (Cavia porcellus) (UniProt A6XA80). The experiment in a line: Leukotriene LTC4 Synthase Eurofins Panlabs panel. Conditions: Compound concentration 10.0 uM.
Test [24] addresses T5, D(4) dopamine receptor (Homo sapiens) (UniProt P21917).
T5 sequence (whole entry): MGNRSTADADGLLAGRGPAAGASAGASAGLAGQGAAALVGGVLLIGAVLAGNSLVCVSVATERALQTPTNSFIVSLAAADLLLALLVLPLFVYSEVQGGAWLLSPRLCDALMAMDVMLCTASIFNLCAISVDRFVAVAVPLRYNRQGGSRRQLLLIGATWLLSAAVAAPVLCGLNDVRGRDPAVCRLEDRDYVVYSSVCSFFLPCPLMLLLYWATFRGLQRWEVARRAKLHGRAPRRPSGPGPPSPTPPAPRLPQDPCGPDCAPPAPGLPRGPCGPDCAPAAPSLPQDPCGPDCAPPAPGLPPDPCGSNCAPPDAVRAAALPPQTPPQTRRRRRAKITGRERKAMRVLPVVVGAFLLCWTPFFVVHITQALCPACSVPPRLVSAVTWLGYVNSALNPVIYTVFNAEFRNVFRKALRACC
The experiment in a line: Dopamine D4.2 Eurofins Panlabs panel. Conditions: Compound concentration 10.0 uM.

Test [25] has as its target Epidermal growth factor receptor (Homo sapiens) (UniProt P00533). The experiment in a line: Protein Tyrosine Kinase, EGF Receptor Eurofins Panlabs panel. The note with it: Compound concentration 10.0 uM.
Test [26] deals with GABA transporter (Rattus norvegicus) (UniProt P31647+P23978+P31646+P48056). The experiment in a line: Transporter, GABA Eurofins Panlabs panel. It counts as protein assay. Conditions: Compound concentration 10.0 uM.
Test [27] has as its target cGMP-specific 3',5'-cyclic phosphodiesterase (Homo sapiens, UniProt O76074). The experiment in a line: Phosphodiesterase PDE5 Eurofins Panlabs panel. Conditions: Compound concentration 10.0 uM.
Test [28] has as its target B1 bradykinin receptor (Homo sapiens) (UniProt P46663). The experiment in a line: Bradykinin B1 Eurofins Panlabs panel. Conditions: Compound concentration 10.0 uM.

Bounds are passed on as bounds.

T1 sequence (O00408 whole entry): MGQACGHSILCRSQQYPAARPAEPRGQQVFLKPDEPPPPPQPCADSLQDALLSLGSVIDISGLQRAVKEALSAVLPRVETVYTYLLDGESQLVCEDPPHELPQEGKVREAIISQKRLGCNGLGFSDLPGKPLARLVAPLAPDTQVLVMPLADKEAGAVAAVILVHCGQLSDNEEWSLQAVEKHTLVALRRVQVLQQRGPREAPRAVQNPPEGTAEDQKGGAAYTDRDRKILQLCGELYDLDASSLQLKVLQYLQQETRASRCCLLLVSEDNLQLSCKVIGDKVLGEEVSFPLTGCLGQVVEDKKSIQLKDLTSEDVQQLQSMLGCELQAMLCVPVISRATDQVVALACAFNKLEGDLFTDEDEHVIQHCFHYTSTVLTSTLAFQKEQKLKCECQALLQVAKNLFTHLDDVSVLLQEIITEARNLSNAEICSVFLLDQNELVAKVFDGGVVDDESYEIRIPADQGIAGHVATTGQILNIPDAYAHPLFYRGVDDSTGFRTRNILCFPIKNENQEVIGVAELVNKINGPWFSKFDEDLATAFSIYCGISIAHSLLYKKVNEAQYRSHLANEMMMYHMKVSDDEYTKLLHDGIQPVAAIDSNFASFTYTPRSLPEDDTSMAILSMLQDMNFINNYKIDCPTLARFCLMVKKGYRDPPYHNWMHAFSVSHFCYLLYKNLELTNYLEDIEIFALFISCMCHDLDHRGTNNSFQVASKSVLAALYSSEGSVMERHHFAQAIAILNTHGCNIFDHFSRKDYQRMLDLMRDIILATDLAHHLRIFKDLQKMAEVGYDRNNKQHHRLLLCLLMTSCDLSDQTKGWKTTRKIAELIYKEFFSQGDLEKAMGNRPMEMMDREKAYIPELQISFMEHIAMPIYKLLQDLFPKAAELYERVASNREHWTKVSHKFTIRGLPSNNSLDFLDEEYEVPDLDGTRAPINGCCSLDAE
T2 sequence (Q07343 whole entry): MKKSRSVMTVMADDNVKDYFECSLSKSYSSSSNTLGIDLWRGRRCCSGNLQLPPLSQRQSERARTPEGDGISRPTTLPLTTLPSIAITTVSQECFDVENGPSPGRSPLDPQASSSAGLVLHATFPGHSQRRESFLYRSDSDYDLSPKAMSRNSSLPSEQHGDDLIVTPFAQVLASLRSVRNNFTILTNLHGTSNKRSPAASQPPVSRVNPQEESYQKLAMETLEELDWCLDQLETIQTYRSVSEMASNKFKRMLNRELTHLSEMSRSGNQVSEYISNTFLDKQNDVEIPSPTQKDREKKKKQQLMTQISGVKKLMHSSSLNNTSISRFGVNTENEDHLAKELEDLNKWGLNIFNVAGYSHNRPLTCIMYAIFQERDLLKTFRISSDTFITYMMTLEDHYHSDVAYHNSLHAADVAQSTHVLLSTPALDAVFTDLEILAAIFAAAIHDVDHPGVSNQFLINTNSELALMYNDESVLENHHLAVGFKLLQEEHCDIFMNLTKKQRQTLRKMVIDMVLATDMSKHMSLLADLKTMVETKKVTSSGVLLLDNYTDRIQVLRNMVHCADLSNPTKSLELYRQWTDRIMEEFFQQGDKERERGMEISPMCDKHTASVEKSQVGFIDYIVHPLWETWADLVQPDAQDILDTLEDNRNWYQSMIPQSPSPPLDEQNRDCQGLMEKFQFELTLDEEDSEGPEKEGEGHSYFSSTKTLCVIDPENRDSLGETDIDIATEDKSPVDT
Sequence of Epidermal growth factor receptor (Homo sapiens) (P00533 whole entry): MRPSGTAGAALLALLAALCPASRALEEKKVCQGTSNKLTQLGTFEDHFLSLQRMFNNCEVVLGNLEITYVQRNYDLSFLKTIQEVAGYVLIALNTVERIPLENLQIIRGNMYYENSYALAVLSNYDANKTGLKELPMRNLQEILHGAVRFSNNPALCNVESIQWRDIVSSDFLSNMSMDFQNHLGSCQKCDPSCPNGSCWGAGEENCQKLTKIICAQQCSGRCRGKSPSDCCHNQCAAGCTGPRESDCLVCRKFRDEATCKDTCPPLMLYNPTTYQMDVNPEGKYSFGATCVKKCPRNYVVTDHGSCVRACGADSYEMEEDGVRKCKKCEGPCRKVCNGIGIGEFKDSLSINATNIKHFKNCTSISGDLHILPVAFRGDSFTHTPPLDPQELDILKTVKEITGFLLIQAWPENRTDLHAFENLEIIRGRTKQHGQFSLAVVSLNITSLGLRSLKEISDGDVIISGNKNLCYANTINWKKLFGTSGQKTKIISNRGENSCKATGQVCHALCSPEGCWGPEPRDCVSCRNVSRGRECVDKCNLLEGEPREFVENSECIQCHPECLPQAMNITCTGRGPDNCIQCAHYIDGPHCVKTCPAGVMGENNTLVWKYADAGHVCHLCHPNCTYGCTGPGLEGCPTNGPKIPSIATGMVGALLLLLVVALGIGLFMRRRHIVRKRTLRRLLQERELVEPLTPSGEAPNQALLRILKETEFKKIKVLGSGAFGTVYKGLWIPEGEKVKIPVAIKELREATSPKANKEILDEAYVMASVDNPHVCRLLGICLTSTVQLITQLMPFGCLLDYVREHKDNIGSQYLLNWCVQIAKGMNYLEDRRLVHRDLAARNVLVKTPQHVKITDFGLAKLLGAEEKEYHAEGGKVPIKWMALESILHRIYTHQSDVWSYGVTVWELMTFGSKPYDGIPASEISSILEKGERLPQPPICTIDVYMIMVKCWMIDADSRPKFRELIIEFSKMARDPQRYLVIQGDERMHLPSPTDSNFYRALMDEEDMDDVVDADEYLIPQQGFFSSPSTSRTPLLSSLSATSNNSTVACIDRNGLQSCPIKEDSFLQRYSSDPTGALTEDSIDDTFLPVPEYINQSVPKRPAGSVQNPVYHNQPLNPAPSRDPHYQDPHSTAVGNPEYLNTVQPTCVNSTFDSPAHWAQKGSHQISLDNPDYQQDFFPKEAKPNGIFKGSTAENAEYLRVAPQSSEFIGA
Sequence of Mu-type opioid receptor (P35372 whole entry): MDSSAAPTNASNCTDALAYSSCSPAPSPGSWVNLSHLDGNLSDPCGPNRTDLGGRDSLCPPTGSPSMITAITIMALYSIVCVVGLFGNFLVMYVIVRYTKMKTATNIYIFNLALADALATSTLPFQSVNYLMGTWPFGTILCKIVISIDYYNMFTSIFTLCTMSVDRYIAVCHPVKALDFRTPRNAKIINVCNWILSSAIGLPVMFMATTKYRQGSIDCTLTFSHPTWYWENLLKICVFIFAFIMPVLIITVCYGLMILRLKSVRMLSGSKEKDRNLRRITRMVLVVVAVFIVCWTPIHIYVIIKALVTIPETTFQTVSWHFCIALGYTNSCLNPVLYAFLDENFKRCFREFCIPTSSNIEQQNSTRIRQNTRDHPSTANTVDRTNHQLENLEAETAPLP
Sequence of Prostaglandin G/H synthase 2 (Homo sapiens) (P35354 whole entry): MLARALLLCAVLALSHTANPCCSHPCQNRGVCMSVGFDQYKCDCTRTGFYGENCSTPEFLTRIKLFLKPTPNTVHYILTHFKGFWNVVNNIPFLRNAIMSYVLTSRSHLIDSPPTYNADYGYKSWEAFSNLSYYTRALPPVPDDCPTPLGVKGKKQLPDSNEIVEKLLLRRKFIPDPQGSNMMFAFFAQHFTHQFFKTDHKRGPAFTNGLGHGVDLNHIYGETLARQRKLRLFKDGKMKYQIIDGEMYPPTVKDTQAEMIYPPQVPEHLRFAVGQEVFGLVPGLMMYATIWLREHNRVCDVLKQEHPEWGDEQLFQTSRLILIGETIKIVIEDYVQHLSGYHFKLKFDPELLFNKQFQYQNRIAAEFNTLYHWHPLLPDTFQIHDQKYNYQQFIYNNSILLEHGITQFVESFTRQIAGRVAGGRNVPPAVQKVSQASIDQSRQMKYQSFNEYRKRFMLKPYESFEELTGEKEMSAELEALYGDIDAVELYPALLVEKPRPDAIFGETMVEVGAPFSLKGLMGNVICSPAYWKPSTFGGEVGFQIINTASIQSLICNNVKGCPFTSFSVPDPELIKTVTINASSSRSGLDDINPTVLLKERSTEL
Sequence of cAMP and cAMP-inhibited cGMP 3',5'-cyclic phosphodiesterase 10A (Q9Y233 whole entry): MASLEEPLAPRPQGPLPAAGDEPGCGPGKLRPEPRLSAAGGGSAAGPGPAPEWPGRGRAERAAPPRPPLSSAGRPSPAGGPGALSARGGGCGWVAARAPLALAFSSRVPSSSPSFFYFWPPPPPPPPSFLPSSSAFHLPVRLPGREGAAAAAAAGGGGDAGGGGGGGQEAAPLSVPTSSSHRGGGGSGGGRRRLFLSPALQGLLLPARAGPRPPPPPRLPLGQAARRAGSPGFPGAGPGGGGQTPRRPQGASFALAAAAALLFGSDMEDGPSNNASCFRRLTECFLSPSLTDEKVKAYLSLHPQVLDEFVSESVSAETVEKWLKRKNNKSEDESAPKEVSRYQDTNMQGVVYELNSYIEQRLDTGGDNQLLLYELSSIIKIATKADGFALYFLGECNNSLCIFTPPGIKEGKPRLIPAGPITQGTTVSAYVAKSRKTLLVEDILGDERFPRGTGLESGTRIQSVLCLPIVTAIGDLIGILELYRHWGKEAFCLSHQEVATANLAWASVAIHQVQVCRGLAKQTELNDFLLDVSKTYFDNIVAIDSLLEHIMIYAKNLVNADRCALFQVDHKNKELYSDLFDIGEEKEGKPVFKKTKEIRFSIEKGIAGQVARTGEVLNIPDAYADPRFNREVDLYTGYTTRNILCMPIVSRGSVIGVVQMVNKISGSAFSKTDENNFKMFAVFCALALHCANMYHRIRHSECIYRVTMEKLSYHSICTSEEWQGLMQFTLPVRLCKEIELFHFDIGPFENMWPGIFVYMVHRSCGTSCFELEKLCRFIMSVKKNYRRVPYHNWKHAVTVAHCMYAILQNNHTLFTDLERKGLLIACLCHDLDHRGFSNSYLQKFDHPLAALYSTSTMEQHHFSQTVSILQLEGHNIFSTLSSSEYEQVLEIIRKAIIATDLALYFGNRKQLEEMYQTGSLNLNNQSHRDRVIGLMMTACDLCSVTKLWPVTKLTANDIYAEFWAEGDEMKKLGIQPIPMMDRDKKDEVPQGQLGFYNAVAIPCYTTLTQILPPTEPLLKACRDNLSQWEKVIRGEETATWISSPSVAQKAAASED

A word on the inhibition: it is the relative decrease from the control value, in per cent. Regarding `CCC[C@@H]1CNCc2c1[nH]c(=O)c(C#N)c2N1CCC2(CC1)CC2`, the inhibition was 1.3% in test [1]; 0.8% in [2]; 6.8% in test [3]; 3.5% in test [4]; 10.6% in [5].

The IC50 is the concentration that inhibits the measured activity by half. A lower IC50 goes with higher potency. For `CCC[C@H]1CNCc2c1[nH]c(=O)c(C#N)c2N1CCC2(CC1)CC2`, the inhibition is -2% in test [6]; 8% in [7]; -5% in [8]; 18.4% in test [9]; 5% in test [10]; 15% in test [11]. The inhibition is 3.75% in [14]; 12.5% in test [16]; -1% in test [17]; 24.2% in [19]; 58% in [21]; 4% in [22]. In addition, the inhibition in [23] turned out to be 16%; in [24], 2%; in [25], 9%; in [26], 11%; in test [27], 59%; in [28] it was 1%. The IC50 in test [12] is 1.49 µM (not active); in test [13], 0.753 µM; in test [15] it was > 10 µM (not active); in test [18] it was 3.96 µM (not active); in [20] it was > 10 µM (not active).
